# Biological target: T1, AceR (Acinetobacter baumannii, UniProt P0DUU5)
# T1 sequence (P0DUU5 84-297): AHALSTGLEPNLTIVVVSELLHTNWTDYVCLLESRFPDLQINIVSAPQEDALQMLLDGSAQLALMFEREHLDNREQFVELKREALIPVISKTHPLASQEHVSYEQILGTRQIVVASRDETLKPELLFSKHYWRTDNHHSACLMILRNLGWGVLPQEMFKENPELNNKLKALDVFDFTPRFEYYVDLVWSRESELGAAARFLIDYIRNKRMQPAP
# Assay: SPR
# Format: binding
compound,measurement,value
[H]/N=C(\N/C(=N/[H])NCCCCCCNC(=N)NC(=N)Nc1ccc(Cl)cc1)Nc1ccc(Cl)cc1 [chlorhexidine],Kd,62.3 µM
